From patent publication US12616674B2, “Anti-fibrotic NEU3 inhibitor compounds and methods of use” (The Texas A&M University System, priority 2019, dated 2026)

Biological target: T1, recombinant mouse NEU3 (Mus musculus, UniProt Q9JMH7)
T1 construct: c-Myc; host or cells: HEK 293 Freestyle cells
T1 sequence (Q9JMH7 1-418): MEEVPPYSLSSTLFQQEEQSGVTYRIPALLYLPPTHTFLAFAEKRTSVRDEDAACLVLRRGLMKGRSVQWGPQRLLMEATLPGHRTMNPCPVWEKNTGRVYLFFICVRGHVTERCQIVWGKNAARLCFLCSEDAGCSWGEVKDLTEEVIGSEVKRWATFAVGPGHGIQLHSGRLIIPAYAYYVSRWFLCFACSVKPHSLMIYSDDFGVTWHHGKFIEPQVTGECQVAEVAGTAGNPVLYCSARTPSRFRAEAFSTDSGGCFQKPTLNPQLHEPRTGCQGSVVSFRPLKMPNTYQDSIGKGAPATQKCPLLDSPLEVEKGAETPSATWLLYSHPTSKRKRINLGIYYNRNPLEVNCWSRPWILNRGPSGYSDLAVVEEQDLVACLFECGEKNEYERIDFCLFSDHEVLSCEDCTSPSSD
Experiment: Recombinant mouse NEU3-catalyzed TGF-β1 activation (TGF-β1 ELISA)
Type: biochemical
Details: recombinant mouse NEU3, FIGS. 7A-B
Procedure: To determine if selected NEU3 inhibitors could be used in mice to inhibit mouse NEU3, we made recombinant mouse NEU3 in HEK 293 Freestyle human embryonic kidney cells. HEK 293 Freestyle cells (Life Technologies, Grand Island, NY) were cultured in FreeStyle 293 media (12338-018, Life Technologies, Grand Island, NY). 1×10^5 cells were mixed with 2 μg of 100 μg/ml of murine Neu3 expression clone (MR223297, Origene), in 100 μl PBS (GE Lifesciences), and were transfected by electroporation using a 4D-Nucelofactor System (Lonza) following the manufacturer's protocol. The transfected cells were kept at room temperature for 15 minutes for recovery, after which the cells were cultured in 25 ml Freestyle 293 media with 250 μg/ml of G418 antibiotic (345812, Calbiochem EMD Chemicals Inc. San Diego, CA) to select for transfected cells, in a 200 ml cell culture flask (431464U, Corning) at 37° C. humidified with 5% CO2. After 10 days, the cells were isolated, lysed, and c-Myc tagged recombinant mouse NEU3 protein was purified using a Myc-Trap A kit (ytak-20, Chromotek, Hauppauge, NY) following the manufacturer's protocol. The eluted protein was stored in 50 μl of 10% glycerol, 100 mM glycine, 25 mM Tris-HCl pH 7.3.
To determine if NEU3 inhibitors would be effective in mice, NEU3 inhibitors were tested against recombinant mouse NEU3. […]

CC(=O)c1ccccn1 [Compound 5, 2-acetylpyridine]
inhibition of NEU3's activation of TGF-β1: inhibited

COC(=O)c1ccccn1 [Compound 6, methyl picolinate]
inhibition of NEU3's activation of TGF-β1: inhibited
